Measurements: ChEMBL document CHEMBL5120922, “Discovery, Optimization, and Evaluation of Potent and Selective PI3Kδ-γ Dual Inhibitors for the Treatment of B-cell Malignancies” (J Med Chem, 2022)
Active and inactive are the calls of the source. The calls are words filed in the database; no cut-off is given here.

Key:
[1] = Cmax in Sprague-Dawley rat at 5 mg/kg, iv measured upto 24 hrs by LC-MS/MS analysis; assay type: ADME, organism-based; set-up: time < 24 hrs, dose 5 mg/kg, route iv; details: in vivo
[2] = Cmax in Sprague-Dawley rat at 2 mg/kg, iv measured upto 24 hrs by LC-MS/MS analysis; assay type: ADME, organism-based; set-up: time < 24 hrs, dose 2 mg/kg, route iv; details: in vivo
[3] = Cmax in Sprague-Dawley rat at 10 mg/kg, po measured upto 24 hrs by LC-MS/MS analysis; assay type: ADME, organism-based; set-up: dose 10 mg/kg, time < 24 hrs, route po; details: in vivo
[4] = Tmax in Sprague-Dawley rat at 5 mg/kg, iv measured upto 24 hrs by LC-MS/MS analysis; assay type: ADME, organism-based; details: in vivo
[5] = AUC(0 to t) in Sprague-Dawley rat at 5 mg/kg, iv measured upto 24 hrs by LC-MS/MS analysis; assay type: ADME, organism-based; set-up: time < 24 hrs, dose 5 mg/kg, route iv; details: in vivo
[6] = AUC(0 to t) in Sprague-Dawley rat at 10 mg/kg, po measured upto 24 hrs by LC-MS/MS analysis; assay type: ADME, organism-based; set-up: dose 10 mg/kg, time < 24 hrs, route po; details: in vivo
[7] = AUC(0 to t) in Sprague-Dawley rat at 2 mg/kg, iv measured upto 24 hrs by LC-MS/MS analysis; assay type: ADME, organism-based; set-up: time < 24 hrs, dose 2 mg/kg, route iv; details: in vivo
[8] = Half life in Sprague-Dawley rat at 2 mg/kg, iv measured upto 24 hrs by LC-MS/MS analysis; assay type: ADME, organism-based; details: in vivo
[9] = Clearance in Sprague-Dawley rat at 5 mg/kg, po measured upto 24 hrs by LC-MS/MS analysis; assay type: ADME, organism-based; details: in vivo
[10] = Clearance in Sprague-Dawley rat at 5 mg/kg, iv measured upto 24 hrs by LC-MS/MS analysis; assay type: ADME, organism-based; details: in vivo
[11] = Clearance in Sprague-Dawley rat at 2 mg/kg, iv measured upto 24 hrs by LC-MS/MS analysis; assay type: ADME, organism-based; details: in vivo
SU-DHL-6 [12] = assay: Induction of cell cycle arrest in human SU-DHL-6 cells assessed as accumulation of cells at G0/G1 phase at 0.5 uM incubated for 24 hrs in presence of ibrutinib by PI staining based FACScan flow cytometry analysis (reference value: 55.61 %); assay type: functional
DOHH-2 [13] = assay: Induction of cell cycle arrest in human DOHH-2 cells assessed as accumulation of cells at S phase at 0.5 uM incubated for 24 hrs by PI staining based FACScan flow cytometry analysis (reference value: 55.11 %); assay type: functional
DOHH-2 [14] = assay: Induction of cell cycle arrest in human DOHH-2 cells assessed as accumulation of cells at G2/M phase at 0.5 uM incubated for 24 hrs by PI staining based flow cytometry analysis (reference value: 21.42 %); assay type: functional
SU-DHL-6 [15] = assay: Induction of apoptosis in human SU-DHL-6 cells assessed as necrotic cells at 1.5 uM incubated for 48 hrs by annexin V-FITC and PI staining based flow cytometry analysis (reference value: 0.32%); assay type: functional
SU-DHL-6 [16] = assay: Induction of apoptosis in human SU-DHL-6 cells assessed as viable cells at 1.5 uM incubated for 48 hrs in presence of ibrutinib by annexin V-FITC and PI staining based flow cytometry analysis (reference value: 87.0 %); assay type: functional; details: read-out: Activity
DOHH-2 [17] = assay: Induction of apoptosis in human DOHH-2 cells assessed as early apoptotic cells at 2 uM incubated for 48 hrs by annexin V-FITC and PI staining based flow cytometry analysis (reference value: 2.09 %); assay type: functional
DOHH-2 [18] = assay: Induction of apoptosis in human DOHH-2 cells assessed as viable cells at 2 uM incubated for 48 hrs in presence of ibrutinib by annexin V-FITC and PI staining based flow cytometry analysis (reference value: 95.4 %); assay type: functional; details: read-out: Activity
[19] = Binding affinity to N-terminal His6-tagged recombinant full length human PI3K expressed in baculovirus infected Sf21 insect cells at 10 uM in presence of [gamma-33ATP] by scintillation counting based radiometry assay relative to control
[20] = Selectivity ratio of IC50 for human SKOV-3 cells over expressing PI3Kalpha to IC50 for human SUDHL-6 cells; assay type: functional
SU-DHL-6 [21] = assay: Antitumor activity against human SU-DHL-6 cells xenografted in po dosed NOD/SCID mouse assessed as tumor volume suppression measured every 2 days; assay type: functional, organism-based; details: time 2.0 day, DDE = dose-dependent effect
SU-DHL-6 [22] = assay: Antitumor activity against human SU-DHL-6 cells xenografted in NOD/SCID mouse assessed as tumor growth inhibition at 10 mg/kg, po measured every 2 days in presence of ibrutinib; assay type: functional; details: SU-DHL-6, 48 h, time 2 day, read-out: TGI
SU-DHL-6 [23] = assay: Antitumor activity against human SU-DHL-6 cells xenografted in NOD/SCID mouse assessed as reduction in tumor volume at 10 mg/kg, po measured every 2 days in presence of ibrutinib; assay type: functional, organism-based; details: time 2.0 day
[24] = biological target: T1, Phosphatidylinositol 4,5-bisphosphate 3-kinase catalytic subunit delta isoform (Homo sapiens, UniProt O00329); assay: Inhibition of N-terminal His6-tagged recombinant full length human PI3Kdelta expressed in baculovirus infected Sf21 insect cells incubated for 30 mins by HTRF assay
T1 sequence (O00329 whole entry): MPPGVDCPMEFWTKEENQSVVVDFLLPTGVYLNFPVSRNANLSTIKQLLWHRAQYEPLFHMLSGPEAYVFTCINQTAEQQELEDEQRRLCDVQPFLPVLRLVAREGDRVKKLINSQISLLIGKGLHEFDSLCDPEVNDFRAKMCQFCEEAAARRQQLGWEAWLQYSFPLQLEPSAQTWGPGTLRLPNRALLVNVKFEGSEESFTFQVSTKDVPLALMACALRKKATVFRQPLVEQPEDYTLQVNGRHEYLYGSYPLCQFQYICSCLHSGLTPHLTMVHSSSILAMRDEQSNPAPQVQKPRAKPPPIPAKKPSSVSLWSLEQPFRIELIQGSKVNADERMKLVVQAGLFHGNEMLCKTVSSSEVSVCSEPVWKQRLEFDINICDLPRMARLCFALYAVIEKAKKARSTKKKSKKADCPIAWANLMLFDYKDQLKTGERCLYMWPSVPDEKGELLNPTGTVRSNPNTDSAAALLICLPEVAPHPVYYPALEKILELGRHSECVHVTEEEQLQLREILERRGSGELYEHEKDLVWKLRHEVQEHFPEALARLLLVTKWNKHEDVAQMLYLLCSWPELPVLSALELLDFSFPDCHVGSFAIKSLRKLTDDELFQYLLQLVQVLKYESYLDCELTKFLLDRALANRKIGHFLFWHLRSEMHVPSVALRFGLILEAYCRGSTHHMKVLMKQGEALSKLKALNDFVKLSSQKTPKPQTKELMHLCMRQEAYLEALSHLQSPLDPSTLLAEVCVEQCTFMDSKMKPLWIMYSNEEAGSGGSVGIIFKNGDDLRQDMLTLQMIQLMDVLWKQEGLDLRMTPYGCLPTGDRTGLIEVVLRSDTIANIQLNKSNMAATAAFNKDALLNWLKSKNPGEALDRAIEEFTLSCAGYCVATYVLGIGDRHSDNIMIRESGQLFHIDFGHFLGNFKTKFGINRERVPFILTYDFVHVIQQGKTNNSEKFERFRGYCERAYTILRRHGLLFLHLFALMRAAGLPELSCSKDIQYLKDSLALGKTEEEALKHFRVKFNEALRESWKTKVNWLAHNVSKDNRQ

[25] = biological target: Phosphatidylinositol 4,5-bisphosphate 3-kinase catalytic subunit beta isoform (Homo sapiens, UniProt P42338); assay: Inhibition of N-terminal His6-tagged recombinant full length human PI3Kbeta expressed in baculovirus infected Sf21 insect cells incubated for 30 mins by HTRF assay
Sequence of Phosphatidylinositol 4,5-bisphosphate 3-kinase catalytic subunit beta isoform (P42338 whole entry, canonical isoform): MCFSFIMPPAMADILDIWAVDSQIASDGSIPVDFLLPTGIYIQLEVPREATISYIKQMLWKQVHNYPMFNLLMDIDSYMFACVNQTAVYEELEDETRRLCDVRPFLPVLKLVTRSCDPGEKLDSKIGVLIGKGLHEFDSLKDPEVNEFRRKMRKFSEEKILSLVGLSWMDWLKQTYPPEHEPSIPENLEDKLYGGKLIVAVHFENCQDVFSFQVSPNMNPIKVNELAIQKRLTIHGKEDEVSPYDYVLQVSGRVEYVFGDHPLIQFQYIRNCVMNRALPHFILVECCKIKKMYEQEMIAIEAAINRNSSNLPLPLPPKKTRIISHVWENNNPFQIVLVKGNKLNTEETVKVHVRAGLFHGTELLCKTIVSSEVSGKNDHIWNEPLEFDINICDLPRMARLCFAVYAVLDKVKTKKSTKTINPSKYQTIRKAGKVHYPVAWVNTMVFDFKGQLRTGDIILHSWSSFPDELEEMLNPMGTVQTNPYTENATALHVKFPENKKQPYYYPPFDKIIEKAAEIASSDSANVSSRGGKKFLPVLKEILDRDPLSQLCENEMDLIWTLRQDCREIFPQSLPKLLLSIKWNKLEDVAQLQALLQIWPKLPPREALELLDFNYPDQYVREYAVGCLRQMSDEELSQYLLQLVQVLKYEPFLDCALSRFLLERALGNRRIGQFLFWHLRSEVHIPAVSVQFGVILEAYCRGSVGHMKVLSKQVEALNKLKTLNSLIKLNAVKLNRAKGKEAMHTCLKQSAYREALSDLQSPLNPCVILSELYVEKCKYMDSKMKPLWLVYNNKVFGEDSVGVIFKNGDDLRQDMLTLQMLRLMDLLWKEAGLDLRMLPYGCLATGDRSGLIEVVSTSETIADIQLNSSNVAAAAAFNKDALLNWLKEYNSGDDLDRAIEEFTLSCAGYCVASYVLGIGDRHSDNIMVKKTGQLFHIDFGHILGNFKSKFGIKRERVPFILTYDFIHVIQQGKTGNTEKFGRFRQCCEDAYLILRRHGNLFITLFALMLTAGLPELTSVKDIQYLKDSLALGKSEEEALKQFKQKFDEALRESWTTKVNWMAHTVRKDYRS

C[C@H]1CC[C@@H](c2nc3cccc(Cl)c3c(=O)n2-c2cccnc2)N1c1nc(N)nc(N)c1C#N
Cmax [1]: 860 ng/mL
Cmax [2]: 1520 ng/mL
Cmax [3]: 785 ng/mL
Tmax [4]: 4.8 min
AUC(0-t) at 24 h [5]: 6810 ng·h/mL
AUC(0-t) at 24 h [6]: 2930 ng·h/mL
AUC(0-t) at 24 h [7]: 1150 ng·h/mL
half-life [8]: 43.8 min
CL/F [9]: 13.2 mL/min/kg
clearance [10]: 12.5 mL/min/kg
clearance [11]: 30.5 mL/min/kg
Activity (SU-DHL-6 [12]): 79.73%
Activity (DOHH-2 [13]): 43.53%
Activity (DOHH-2 [14]): 12.82%
Activity (SU-DHL-6 [15]): 0.18%
viability at 1.5 µM (SU-DHL-6 [16]): 47.1%
Activity (DOHH-2 [17]): 20.4%
viability at 2 µM (DOHH-2 [18]): 23.5%
Activity [19]: Active
Selectivity ratio [20]: 107
Activity (SU-DHL-6 [21]): Dde
inhibition in vivo at 10 mg/kg (SU-DHL-6 [22]): ≤ 81.4%
Activity (SU-DHL-6 [23]): Active
IC50 [24]: 1 µM
IC50 [25]: 84 µM
